{"source": "patent US7745476B2", "about": "“1,3,5-trisubstituted 4,5-dihydro-1H-pyrazole derivatives having CB1-antagonistic activity” (Solvay Pharmaceuticals B.V., priority 2004, dated 2010)", "key": {"[1]": {"target": "human cannabinoid CB1 receptor (Homo sapiens, UniProt P21554)", "sequence (P21554 whole entry)": "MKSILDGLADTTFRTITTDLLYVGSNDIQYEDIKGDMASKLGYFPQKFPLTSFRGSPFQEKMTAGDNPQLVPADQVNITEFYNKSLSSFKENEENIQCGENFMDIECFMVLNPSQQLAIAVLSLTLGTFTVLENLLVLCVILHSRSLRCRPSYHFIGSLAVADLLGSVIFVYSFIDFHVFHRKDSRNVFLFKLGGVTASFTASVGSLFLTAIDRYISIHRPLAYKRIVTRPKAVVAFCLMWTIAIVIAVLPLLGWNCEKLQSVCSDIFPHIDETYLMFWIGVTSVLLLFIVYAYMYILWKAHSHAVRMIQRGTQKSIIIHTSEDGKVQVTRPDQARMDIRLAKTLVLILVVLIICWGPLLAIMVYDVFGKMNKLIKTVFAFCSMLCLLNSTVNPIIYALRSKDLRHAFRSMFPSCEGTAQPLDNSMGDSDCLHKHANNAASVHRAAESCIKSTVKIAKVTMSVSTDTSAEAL", "assay": "In vitro affinity for cannabinoid-CB1 receptors ([3H]CP-55,940 radioligand binding, CHO cell membranes)", "conditions": "read-out: In vitro affinity pKi value (converted)", "protocol": "The affinity of the compounds of the invention for cannabinoid CB1 receptors can be determined using membrane preparations of Chinese hamster ovary (CHO) cells in which the human cannabinoid CB1 receptor is stably transfected in conjunction with [^3H]CP-55,940 as radioligand. After incubation of a freshly prepared cell membrane preparation with the [^3H]-ligand, with or without addition of compounds of the invention, separation of bound and free ligand is performed by filtration over glassfiber filters. Radioactivity on the filter is measured by liquid scintillation counting."}, "human CB1 receptor": {"target": "human CB1 receptor (Homo sapiens, UniProt P21554)", "sequence (P21554 whole entry)": "as above", "assay": "In vitro cannabinoid-CB1 receptor antagonism (WIN 55,212-2-induced [3H]-arachidonic acid release in CHO cells)", "format": "cell-based", "conditions": "10^−6M", "protocol": "In vitro CB1 receptor antagonism can be assessed with the human CB1 receptor cloned in Chinese hamster ovary (CHO) cells. CHO cells are grown in a Dulbecco's Modified Eagle's medium (DMEM) culture medium, supplemented with 10% heat-inactivated fetal calf serum. Medium is aspirated and replaced by DMEM, without fetal calf serum, but containing [^3H]-arachidonic acid and incubated overnight in a cell culture stove (5% CO2/95% air; 37° C.; water-saturated atmosphere). During this period [^3H]-arachidonic acid is incorporated in membrane phospholipids. On the test day, medium is aspirated and cells are washed three times using 0.5 ml DMEM, containing 0.2% bovine serum albumin (BSA). Stimulation of the CB1 receptor by WIN 55,212-2 leads to activation of PLA2 followed by release of [^3H]-arachidonic acid into the medium. This WIN 55,212-2-induced release is concentration-dependently antagonized by CB1 receptor antagonists."}}}
{"smiles": "N/C(=N\\S(=O)(=O)c1ccc(F)cc1)C1=NN(c2ccc(Cl)cc2Cl)C(c2ccccc2)C1", "note": "(stereo not shown) [Compound 6, N-[(4-fluorophenyl)sulfonyl]-1-(2,4-dichlorophenyl)-5-phenyl-4,5-dihydro-(1H)-pyrazole-3-carboxamidine]", "values": [{"measurement": "melting point", "value": "167 to 169.5", "unit": "°C"}]}
{"smiles": "O=C(NN1CCCCC1)C1=NN(c2ccc(Cl)cc2Cl)C(c2ccccc2)C1", "note": "(stereo not shown) [Compound 3, N-(Piperidin-1-yl)-1-(2,4-dichlorophenyl)-5-phenyl-4,5-dihydro-(1H)-pyrazole-3-carboxamide]", "values": [{"measurement": "Ki", "setting": "[1]", "value": 25.1, "unit": "nM"}, {"measurement": "inhibition at 1 µM", "setting": "human CB1 receptor", "value": 98, "unit": "%"}, {"measurement": "melting point", "value": "163 to 165", "unit": "°C"}]}
{"smiles": "O=C(NC1CCCCC1)C1=NN(c2ccc(Cl)cc2Cl)C(c2ccccc2)C1", "note": "(stereo not shown)", "values": [{"measurement": "melting point", "value": "160 to 163.5", "unit": "°C"}]}
{"smiles": "CNC(=NS(=O)(=O)N1CCCCC1)C1=NN(c2ccc(Cl)cc2)C(c2ccccc2)C1", "note": "(stereo not shown) [Compound 10, N-[(piperidin-1-yl)sulfonyl]-N′-methyl-1-(4-chlorophenyl)-5-phenyl-4,5-dihydro-(1H)-pyrazole-3-carboxamidine]", "values": [{"measurement": "Ki", "setting": "[1]", "value": 79.4, "unit": "nM"}, {"measurement": "inhibition at 1 µM", "setting": "human CB1 receptor", "value": 79, "unit": "%"}]}
{"smiles": "O=C(NN1CCCCC1)C1=NN(c2ccc(Cl)cc2)C(c2ccccc2)C1", "note": "(stereo not shown) [Compound 1, N-(piperidin-1-yl)-1-(4-chlorophenyl)-5-phenyl-4,5-dihydro-(1H)-pyrazole-3-carboxamide]", "values": [{"measurement": "melting point", "value": "189 to 192", "unit": "°C"}]}
{"smiles": "N/C(=N\\S(=O)(=O)c1ccc(F)cc1)C1=NN(c2ccc(Cl)cc2)C(c2ccccc2)C1", "note": "(stereo not shown) [Compound 5, N-[(4-fluorophenyl)sulfonyl]-1-(4-chlorophenyl)-5-phenyl-4,5-dihydro-(1H)-pyrazole-3-carboxamidine]", "values": [{"measurement": "melting point", "value": "200 to 203.5", "unit": "°C"}]}
{"smiles": "CN/C(=N\\S(=O)(=O)N1CCOCC1)C1=NN(c2ccc(Cl)cc2Cl)C(c2ccccc2)C1", "note": "(stereo not shown) [Compound 11, N-[(Morpholin-4-yl)sulfonyl]-N′-methyl-1-(2,4-dichlorophenyl)-5-phenyl-4,5-dihydro-(1H)-pyrazole-3-carboxamidine]", "values": [{"measurement": "melting point", "value": "161 to 165", "unit": "°C"}]}
